Results taken from PubChem BioAssay AID1259407 (Chemical Carcinogenesis Research Information System (CCRIS), 2018).
Calls of active or inactive are those of the source. How the calls were made is not given here.

System: CCRIS mutagenicity, Ames/micronucleus/aberration tests
Assay: CCRIS mutagenicity studies
[1] = End Point: IN VITRO CHROMOSOMAL ABERRATIONS, Test System: CHO CELLS, Metabolic Activation: NONE
[2] = Test System: AMES SALMONELLA TYPHIMURIUM, Strain/Indicator: TA98, Metabolic Activation: NONE, Method: PREINCUBATION
[3] = Test System: AMES SALMONELLA TYPHIMURIUM, Strain/Indicator: TA100, Metabolic Activation: NONE, Method: PREINCUBATION
[4] = Test System: AMES SALMONELLA TYPHIMURIUM, Strain/Indicator: TA1535, Metabolic Activation: NONE, Method: PREINCUBATION
[5] = Test System: AMES SALMONELLA TYPHIMURIUM, Strain/Indicator: TA1537, Metabolic Activation: NONE, Method: PREINCUBATION
[6] = Test System: AMES SALMONELLA TYPHIMURIUM, Strain/Indicator: TA1537, Metabolic Activation: NONE, Method: STANDARD PLATE

Question: Which results are given for COc1cc(/C=C/C(=O)CC(=O)/C=C/c2ccc(O)c(OC)c2)ccc1O?
Answer: mutagenic call [1]: active; positive (structural changes); presence of iron significantly decreased number o; mutagenic call (End Point: IN VITRO CHROMOSOMAL ABERRATIONS, Test System: CHO-9 CELLS, Metabolic Activation: NONE): active; positive (structural changes); mutagenic call (End Point: IN VIVO CHROMOSOMAL ABERRATIONS, Test System: BONE MARROW CELLS, Species: RAT, Strain/Sex: WISTAR/MALE, Route: GAVAGE): inactive; negative; curcumin reduced mutagenic effect of cyclophosphamide; mutagenic call (End Point: In vitro chromosomal aberrations, Test System: Chinese hamster ovary (CHO-9) cells, Metabolic Activation: None): active; positive (structural changes); mutagenic call (End Point: In vitro micronucleus, Test System: Human lymphocytes, Metabolic Activation: None): inactive; negative; mutagenic call (Test System: AMES SALMONELLA TYPHIMURIUM, Strain/Indicator: TA98, Metabolic Activation: HAMSTER, LIVER, S-9, AROCLOR 1254 (10%), Method: PREINCUBATION): inactive; negative; mutagenic call (Test System: AMES SALMONELLA TYPHIMURIUM, Strain/Indicator: TA98, Metabolic Activation: HAMSTER, LIVER, S-9, AROCLOR 1254, Method: STANDARD PLATE): inactive; negative; mutagenic call [2]: inactive; negative; mutagenic call (Test System: AMES SALMONELLA TYPHIMURIUM, Strain/Indicator: TA98, Metabolic Activation: NONE, Method: STANDARD PLATE): inactive; negative; mutagenic call (Test System: AMES SALMONELLA TYPHIMURIUM, Strain/Indicator: TA98, Metabolic Activation: RAT, LIVER, S-9, AROCLOR 1254 (10%), Method: PREINCUBATION): inactive; negative; mutagenic call (Test System: AMES SALMONELLA TYPHIMURIUM, Strain/Indicator: TA98, Metabolic Activation: RAT, LIVER, S-9, AROCLOR 1254, Method: STANDARD PLATE): inactive; negative; mutagenic call (Test System: AMES SALMONELLA TYPHIMURIUM, Strain/Indicator: TA100, Metabolic Activation: HAMSTER, LIVER, S-9, AROCLOR 1254 (10%), Method: PREINCUBATION): inactive; negative; mutagenic call (Test System: AMES SALMONELLA TYPHIMURIUM, Strain/Indicator: TA100, Metabolic Activation: HAMSTER, LIVER, S-9, AROCLOR 1254, Method: STANDARD PLATE): inactive; negative; mutagenic call [3]: inactive; negative; mutagenic call (Test System: AMES SALMONELLA TYPHIMURIUM, Strain/Indicator: TA100, Metabolic Activation: NONE, Method: STANDARD PLATE): inactive; negative; mutagenic call (Test System: AMES SALMONELLA TYPHIMURIUM, Strain/Indicator: TA100, Metabolic Activation: RAT, LIVER, S-9, AROCLOR 1254 (10%), Method: PREINCUBATION): inactive; negative; mutagenic call (Test System: AMES SALMONELLA TYPHIMURIUM, Strain/Indicator: TA100, Metabolic Activation: RAT, LIVER, S-9, AROCLOR 1254, Method: STANDARD PLATE): inactive; negative; mutagenic call (Test System: AMES SALMONELLA TYPHIMURIUM, Strain/Indicator: TA1535, Metabolic Activation: HAMSTER, LIVER, S-9, AROCLOR 1254 (10%), Method: PREINCUBATION): inactive; negative; mutagenic call (Test System: AMES SALMONELLA TYPHIMURIUM, Strain/Indicator: TA1535, Metabolic Activation: HAMSTER, LIVER, S-9, AROCLOR 1254, Method: STANDARD PLATE): inactive; negative; mutagenic call [4]: inactive; negative; mutagenic call (Test System: AMES SALMONELLA TYPHIMURIUM, Strain/Indicator: TA1535, Metabolic Activation: NONE, Method: STANDARD PLATE): inactive; negative; mutagenic call (Test System: AMES SALMONELLA TYPHIMURIUM, Strain/Indicator: TA1535, Metabolic Activation: RAT, LIVER, S-9, AROCLOR 1254 (10%), Method: PREINCUBATION): inactive; negative; mutagenic call (Test System: AMES SALMONELLA TYPHIMURIUM, Strain/Indicator: TA1535, Metabolic Activation: RAT, LIVER, S-9, AROCLOR 1254, Method: STANDARD PLATE): inactive; negative; mutagenic call (Test System: AMES SALMONELLA TYPHIMURIUM, Strain/Indicator: TA1537, Metabolic Activation: HAMSTER, LIVER, S-9, AROCLOR 1254 (10%), Method: PREINCUBATION): inactive; negative; mutagenic call (Test System: AMES SALMONELLA TYPHIMURIUM, Strain/Indicator: TA1537, Metabolic Activation: HAMSTER, LIVER, S-9, AROCLOR 1254, Method: STANDARD PLATE): inactive; negative; mutagenic call [5]: inactive; negative; mutagenic call [6]: inactive; negative; mutagenic call (Test System: AMES SALMONELLA TYPHIMURIUM, Strain/Indicator: TA1537, Metabolic Activation: RAT, LIVER, S-9, AROCLOR 1254 (10%), Method: PREINCUBATION): inactive; negative; mutagenic call (Test System: AMES SALMONELLA TYPHIMURIUM, Strain/Indicator: TA1537, Metabolic Activation: RAT, LIVER, S-9, AROCLOR 1254, Method: STANDARD PLATE): inactive; negative; mutagenic call (Test System: AMES SALMONELLA TYPHIMURIUM, Strain/Indicator: TA1538, Metabolic Activation: HAMSTER, LIVER, S-9, AROCLOR 1254, Method: STANDARD PLATE): inactive; negative; mutagenic call (Test System: AMES SALMONELLA TYPHIMURIUM, Strain/Indicator: TA1538, Metabolic Activation: NONE, Method: STANDARD PLATE): inactive; negative; mutagenic call (Test System: AMES SALMONELLA TYPHIMURIUM, Strain/Indicator: TA1538, Metabolic Activation: RAT, LIVER, S-9, AROCLOR 1254, Method: STANDARD PLATE): inactive; negative

Question: Which mutagenic call [6] does the source give for ClCc1c2ccccc2c(CCl)c2ccccc12 here?
Answer: active; positive

Question: Which mutagenic call [1] does the source give for O=S(=O)(O)c1cc(S(=O)(=O)O)c2c(N=Nc3ccccc3)c(O)ccc2c1 here?
Answer: inactive; negative

Question: And the mutagenic call (End Point: IN VITRO CHROMOSOMAL ABERRATIONS, Test System: CHO CELLS, Metabolic Activation: RAT, LIVER, S-9, AROCLOR 1254)?
Answer: active; positive

Question: What about the mutagenic call (Test System: AMES SALMONELLA TYPHIMURIUM, Strain/Indicator: TA97, Metabolic Activation: HAMSTER, LIVER, S-9, AROCLOR 1254 (10 OR 30%), Method: PREINCUBATION) of the same molecule?
Answer: inactive; negative

Question: What about the mutagenic call (Test System: AMES SALMONELLA TYPHIMURIUM, Strain/Indicator: TA97, Metabolic Activation: NONE, Method: PREINCUBATION) of the same molecule?
Answer: inactive; negative

Question: And the mutagenic call (Test System: AMES SALMONELLA TYPHIMURIUM, Strain/Indicator: TA97, Metabolic Activation: RAT, LIVER, S-9, AROCLOR 1254 (10 OR 30%), Method: PREINCUBATION)?
Answer: inactive; negative

Question: What about the mutagenic call (Test System: AMES SALMONELLA TYPHIMURIUM, Strain/Indicator: TA98, Metabolic Activation: HAMSTER, LIVER, S-9, AROCLOR 1254 (10 OR 30%), Method: PREINCUBATION) of the same molecule?
Answer: inactive; negative

Question: What about the mutagenic call [2] of the same molecule?
Answer: inactive; negative

Question: And the mutagenic call (Test System: AMES SALMONELLA TYPHIMURIUM, Strain/Indicator: TA98, Metabolic Activation: RAT, LIVER, S-9, AROCLOR 1254 (10 OR 30%), Method: PREINCUBATION)?
Answer: inactive; negative

Question: And the mutagenic call (Test System: AMES SALMONELLA TYPHIMURIUM, Strain/Indicator: TA100, Metabolic Activation: HAMSTER, LIVER, S-9, AROCLOR 1254 (10 OR 30%), Method: PREINCUBATION)?
Answer: inactive; negative

Question: What about the mutagenic call [3] of the same molecule?
Answer: inactive; negative

Question: And the mutagenic call (Test System: AMES SALMONELLA TYPHIMURIUM, Strain/Indicator: TA100, Metabolic Activation: RAT, LIVER, S-9, AROCLOR 1254 (10 OR 30%), Method: PREINCUBATION)?
Answer: inactive; negative

Question: What about the mutagenic call (Test System: AMES SALMONELLA TYPHIMURIUM, Strain/Indicator: TA1535, Metabolic Activation: HAMSTER, LIVER, S-9, AROCLOR 1254 (10 OR 30%), Method: PREINCUBATION) of the same molecule?
Answer: inactive; negative

Question: What about the mutagenic call [4] of the same molecule?
Answer: inactive; negative

Question: What about the mutagenic call (Test System: AMES SALMONELLA TYPHIMURIUM, Strain/Indicator: TA1535, Metabolic Activation: RAT, LIVER, S-9, AROCLOR 1254 (10 OR 30%), Method: PREINCUBATION) of the same molecule?
Answer: inactive; negative

Question: And the mutagenic call (Test System: MOUSE LYMPHOMA, Strain/Indicator: L5178Y (TK+/TK-), Metabolic Activation: NONE, Method: SUSPENSION/PLATE)?
Answer: inactive; negative. reevaluation of results: negative

Question: What about the mutagenic call (Test System: MOUSE LYMPHOMA, Strain/Indicator: L5178Y (TK+/TK-), Metabolic Activation: RAT, LIVER, S-9, AROCLOR 1254, Method: SUSPENSION/PLATE) of the same molecule?
Answer: active; positive. reevaluation of results: equivocal

Question: How did the mutagenic call (Test System: AMES SALMONELLA TYPHIMURIUM, Strain/Indicator: TA98, Metabolic Activation: RAT, LIVER, S-9, AROCLOR 1254, Method: PREINCUBATION) turn out when Cn1c(N)nc2ccc(C#N)cc21 was run?
Answer: active; positive

Question: What does the source list for Oc1cc(O)c2ccccc2c1?
Answer: mutagenic call [2]: active; positive; mutagenic call [3]: active; positive; mutagenic call (Test System: AMES SALMONELLA TYPHIMURIUM, Strain/Indicator: TA104, Metabolic Activation: NONE, Method: PREINCUBATION): active; positive; mutagenic call [4]: inactive; negative; mutagenic call [5]: inactive; negative; mutagenic call (Test System: AMES SALMONELLA TYPHIMURIUM, Strain/Indicator: TA1538, Metabolic Activation: NONE, Method: PREINCUBATION): inactive; negative; mutagenic call (Test System: AMES SALMONELLA TYPHIMURIUM, Strain/Indicator: TA2637, Metabolic Activation: NONE, Method: PREINCUBATION): active; positive; mutagenic call (Test System: AMES SALMONELLA TYPHIMURIUM, Strain/Indicator: TA2659, Metabolic Activation: NONE, Method: PREINCUBATION): inactive; negative
